One test deals with S. aureus GyrB ATPase (Staphylococcus aureus, UniProt P0A0K8). The experiment in a line: S. aureus GyrB ATPase inhibition (ammonium molybdate/malachite green phosphate detection). Type of test: biochemical. Conditions: compound concentration of 1 μM (unless otherwise noted). The method in brief:
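S. aureus GyrB (250 pM) with E. coli GyrA (250 pM), 250 μM ATP and sheared DNA in pH 7.5 Hepes; phosphate release by malachite green/molybdate at 650 nm. Values are percent inhibition at 1 μM compound unless noted, against 2% DMSO and EDTA controls.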

In the next test the test system is Streptococcus pneumoniae. The experiment in a line: Bacterial susceptibility testing in liquid media (MIC). Type of test: cell-based. Conditions: against Streptococcus pneumoniae; lowest concentration reducing growth by 80% or more. The text has this: Compounds may be tested for antimicrobial activity by susceptibility testing in liquid media. Compounds may be dissolved in dimethylsulfoxide and tested in 10 doubling dilutions in the susceptibility assays. The organisms used in the assay may be grown overnight on suitable agar media and then suspended in a liquid medium appropriate for the growth of the organism. The suspension can be a 0.5 McFarland and a further 1 in 10 dilution can be made into the same liquid medium to prepare the final organism suspension in 100 μL. Plates can be incubated under appropriate conditions at 37° C. for 24 hrs prior to reading. The Minimum Inhibitory Concentration (MIC) may be determined as the lowest drug concentration able to reduce growth by 80% or more.

Converted amounts (≈) assume the structure as drawn.

Our source for the inhibition and MIC values is US8071605B2, “Piperidine compounds for use in the treatment of bacterial infections” (AstraZeneca AB, priority 2008, dated 2011).

Sequence of S. aureus GyrB ATPase (P0AES4 whole entry): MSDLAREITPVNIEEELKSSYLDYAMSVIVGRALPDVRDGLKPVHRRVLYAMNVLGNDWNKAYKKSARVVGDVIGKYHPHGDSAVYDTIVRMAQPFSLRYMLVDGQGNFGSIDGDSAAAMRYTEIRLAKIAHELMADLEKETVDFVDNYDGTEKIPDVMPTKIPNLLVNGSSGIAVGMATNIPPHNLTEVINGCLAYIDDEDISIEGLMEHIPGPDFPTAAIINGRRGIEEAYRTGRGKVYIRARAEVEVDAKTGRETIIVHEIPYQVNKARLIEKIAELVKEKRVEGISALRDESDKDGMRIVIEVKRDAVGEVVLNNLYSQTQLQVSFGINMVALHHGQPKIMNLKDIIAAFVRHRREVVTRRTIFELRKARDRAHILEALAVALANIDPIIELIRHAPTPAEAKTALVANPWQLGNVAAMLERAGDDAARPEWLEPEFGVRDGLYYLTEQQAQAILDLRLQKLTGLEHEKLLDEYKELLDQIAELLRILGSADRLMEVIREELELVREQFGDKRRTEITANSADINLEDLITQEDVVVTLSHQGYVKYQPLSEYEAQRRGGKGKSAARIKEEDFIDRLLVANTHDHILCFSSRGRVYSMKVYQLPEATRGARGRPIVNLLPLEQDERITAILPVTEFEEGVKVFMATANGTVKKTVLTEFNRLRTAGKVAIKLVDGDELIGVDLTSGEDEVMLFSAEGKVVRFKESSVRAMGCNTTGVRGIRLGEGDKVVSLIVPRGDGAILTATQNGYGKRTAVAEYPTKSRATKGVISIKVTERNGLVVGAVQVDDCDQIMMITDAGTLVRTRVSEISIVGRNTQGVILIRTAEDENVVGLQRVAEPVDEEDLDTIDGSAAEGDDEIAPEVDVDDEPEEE
Sequence of S. aureus GyrB ATPase (P0A0K8 whole entry): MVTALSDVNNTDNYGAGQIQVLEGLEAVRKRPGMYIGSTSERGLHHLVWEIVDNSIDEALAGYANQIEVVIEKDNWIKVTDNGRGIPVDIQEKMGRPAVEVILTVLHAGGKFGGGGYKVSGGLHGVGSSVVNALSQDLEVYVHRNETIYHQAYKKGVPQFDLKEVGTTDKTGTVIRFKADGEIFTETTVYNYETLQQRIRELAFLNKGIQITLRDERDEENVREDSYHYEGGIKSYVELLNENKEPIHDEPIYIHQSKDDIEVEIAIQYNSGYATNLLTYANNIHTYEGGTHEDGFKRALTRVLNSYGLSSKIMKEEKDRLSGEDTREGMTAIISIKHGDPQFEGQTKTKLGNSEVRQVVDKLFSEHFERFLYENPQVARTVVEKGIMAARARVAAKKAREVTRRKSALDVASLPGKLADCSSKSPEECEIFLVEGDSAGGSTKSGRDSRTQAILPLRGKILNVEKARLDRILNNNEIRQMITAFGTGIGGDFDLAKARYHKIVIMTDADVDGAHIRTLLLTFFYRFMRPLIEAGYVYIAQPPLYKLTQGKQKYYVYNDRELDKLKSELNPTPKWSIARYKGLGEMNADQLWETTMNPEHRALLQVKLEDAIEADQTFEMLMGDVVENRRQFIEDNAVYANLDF

By inhibition is commonly meant the relative decrease from the control value, in per cent. Usually MIC stands for the lowest concentration that inhibits growth of the organism. Low readings indicate greater potency, high ones weaker potency. Consider `COCCn1ccnc1-c1nc(N2CC[C@@H](NC(=O)c3[nH]c(C)c(Cl)c3Cl)[C@@H](C)C2)sc1C(=O)O` [Example 23], for which, on S. aureus GyrB ATPase, the inhibition at 1 µM came to 100%. Also, the MIC against Streptococcus pneumoniae amounted to 0.78 µg/mL (≈ 1.44 µM).
Turning to `Cc1[nH]c(C(=O)N[C@@H]2CCN(c3nc(-c4cnc(N5CCN(CC6CCCO6)CC5)cn4)c(C(=O)O)s3)C[C@@H]2C)c(Cl)c1Cl` (stereo partly drawn) [Example 183, 2-[(3S,4R)-4-{[(3,4-dichloro-5-methyl-1H-pyrrol-2-yl)carbonyl]amino}-3-methylpiperidin-1-yl]-4-{5-[4-(tetrahydrofuran-2-ylmethyl)piperazin-1-yl]pyrazin-2-yl}-1,3-thiazole-5-carboxylic acid], at S. aureus GyrB ATPase, the inhibition at 1 µM stood at 116%.
The same measure, in the same setting: under `CO[C@H]1CN(c2nc(-c3nccc(N4CCCCC4)n3)c(C(=O)O)s2)CC[C@H]1NC(=O)c1[nH]c(C)c(Cl)c1Cl` [Example 189, 2-[(3S,4R)-4-{[(3,4-dichloro-5-methyl-1H-pyrrol-2-yl)carbonyl]amino}-3-methoxypiperidin-1-yl]-4-[4-(piperidin-1-yl)pyrimidin-2-yl]-1,3-thiazole-5-carboxylic acid] stands 106%; under `CO[C@H]1CN(c2nc(-c3nccc(N4CCOCC4)n3)c(C(=O)O)s2)CC[C@H]1NC(=O)c1[nH]c(C)c(Cl)c1Cl` [Example 190, 2-[(3S,4R)-4-{[(3,4-dichloro-5-methyl-1H-pyrrol-2-yl)carbonyl]amino}-3-methoxypiperidin-1-yl]-4-[4-(morpholin-4-yl)pyrimidin-2-yl]-1,3-thiazole-5-carboxylic acid], 100%; under `CO[C@H]1CN(c2nc(-c3nccc(N4CCN(C)CC4)n3)c(C(=O)O)s2)CC[C@H]1NC(=O)c1[nH]c(C)c(Cl)c1Cl` [Example 191, 2-[(3S,4R)-4-{[(3,4-dichloro-5-methyl-1H-pyrrol-2-yl)carbonyl]amino}-3-methoxypiperidin-1-yl]-4-[4-(4-methylpiperazin-1-yl)pyrimidin-2-yl]-1,3-thiazole-5-carboxylic acid], 102%.
Take `CO[C@H]1CN(c2nc(-c3nccc(N4CCN(CC(C)C)CC4)n3)c(C(=O)O)s2)CC[C@H]1NC(=O)c1[nH]c(C)c(Cl)c1Cl` [Example 192, 2-[(3S,4R)-4-{[(3,4-dichloro-5-methyl-1H-pyrrol-2-yl)carbonyl]amino}-3-methoxypiperidin-1-yl]-4-{4-[4-(2-methylpropyl)piperazin-1-yl]pyrimidin-2-yl}-1,3-thiazole-5-carboxylic acid]: at S. aureus GyrB ATPase, the inhibition at 1 µM was determined as 108%.
As for `CCN1CCN(c2ccnc(-c3nc(N4CC[C@@H](NC(=O)c5[nH]c(C)c(Cl)c5Cl)[C@@H](OC)C4)sc3C(=O)O)n2)CC1` [Example 193, 2-[(3S,4R)-4-{[(3,4-dichloro-5-methyl-1H-pyrrol-2-yl)carbonyl]amino}-3-methoxypiperidin-1-yl]-4-[4-(4-ethylpiperazin-1-yl)pyrimidin-2-yl]-1,3-thiazole-5-carboxylic acid], the inhibition at 1 µM on S. aureus GyrB ATPase was 109%.
The same measure, in the same setting: under `CO[C@H]1CN(c2nc(-c3cnc(NCC4CN5CCN4CC5)cn3)c(C(=O)O)s2)CC[C@H]1NC(=O)c1[nH]c(C)c(Cl)c1Cl` (stereo partly drawn) [Example 195, 4-{5-[(1,4-diazabicyclo[2.2.2]oct-2-ylmethyl)amino]pyrazin-2-yl}-2-[(3S,4R)-4-{[(3,4-dichloro-5-methyl-1H-pyrrol-2-yl)carbonyl]amino}-3-methoxypiperidin-1-yl]-1,3-thiazole-5-carboxylic acid] stands 118%; under `CCCO[C@H]1CN(c2nc(-c3ncnn3C)c(C(=O)O)s2)CC[C@H]1NC(=O)c1cc(Cl)c(C)[nH]1` [Example 200, 2-[(3S,4R)-4-{[(4-chloro-5-methyl-1H-pyrrol-2-yl)carbonyl]amino}-3-propoxypiperidin-1-yl]-4-(1-methyl-1H-1,2,4-triazol-5-yl)-1,3-thiazole-5-carboxylic acid], 106%.
Take `CCCO[C@H]1CN(c2nc(-c3nccn3CCOC)c(C(=O)O)s2)CC[C@H]1NC(=O)c1cc(Cl)c(C)[nH]1` [Example 201, 2-[(3S,4R)-4-{[(4-chloro-5-methyl-1H-pyrrol-2-yl)carbonyl]amino}-3-propoxypiperidin-1-yl]-4-[1-(2-methoxyethyl)-1H-imidazol-2-yl]-1,3-thiazole-5-carboxylic acid]: the inhibition at 1 µM on S. aureus GyrB ATPase is 105%.
On to `CCCO[C@H]1CN(c2nc(-c3ncccc3F)c(C(=O)O)s2)CC[C@H]1NC(=O)c1cc(Cl)c(C)[nH]1` [Example 202, 2-[(3S,4R)-4-{[(4-chloro-5-methyl-1H-pyrrol-2-yl)carbonyl]amino}-3-propoxypiperidin-1-yl]-4-(3-fluoropyridin-2-yl)-1,3-thiazole-5-carboxylic acid], for which, at S. aureus GyrB ATPase, the inhibition at 1 µM amounted to 103%.
For the compound `CCCO[C@H]1CN(c2nc(-c3cnccn3)c(C(=O)O)s2)CC[C@H]1NC(=O)c1cc(Cl)c(C)[nH]1` [Example 203, 2-[(3S,4R)-4-{[(4-chloro-5-methyl-1H-pyrrol-2-yl)carbonyl]amino}-3-propoxypiperidin-1-yl]-4-(pyrazin-2-yl)-1,3-thiazole-5-carboxylic acid], the inhibition at 1 µM at S. aureus GyrB ATPase was determined as 108%.
For `CCCO[C@H]1CN(c2nc(-c3ncnn3C)c(C(=O)O)s2)CC[C@H]1NC(=O)c1[nH]c(C)c(Cl)c1C#N` [Example 208, 2-[(3S,4R)-4-{[(4-chloro-3-cyano-5-methyl-1H-pyrrol-2-yl)carbonyl]amino}-3-propoxypiperidin-1-yl]-4-(1-methyl-1H-1,2,4-triazol-5-yl)-1,3-thiazole-5-carboxylic acid], the inhibition at 1 µM at S. aureus GyrB ATPase was found to be 108%.
`CCCO[C@H]1CN(c2nc(-c3nccn3CCOC)c(C(=O)O)s2)CC[C@H]1NC(=O)c1[nH]c(C)c(Cl)c1C#N` [Example 209, 2-[(3S,4R)-4-{[(4-chloro-3-cyano-5-methyl-1H-pyrrol-2-yl)carbonyl]amino}-3-propoxypiperidin-1-yl]-4-[1-(2-methoxyethyl)-1H-imidazol-2-yl]-1,3-thiazole-5-carboxylic acid]: the inhibition at 1 µM on S. aureus GyrB ATPase turned out to be 105%.
`CCCO[C@H]1CN(c2nc(-c3ncccc3F)c(C(=O)O)s2)CC[C@H]1NC(=O)c1[nH]c(C)c(Cl)c1C#N` [Example 210, 2-[(3S,4R)-4-{[(4-chloro-3-cyano-5-methyl-1H-pyrrol-2-yl)carbonyl]amino}-3-propoxypiperidin-1-yl]-4-(3-fluoropyridin-2-yl)-1,3-thiazole-5-carboxylic acid]: the inhibition at 1 µM at S. aureus GyrB ATPase was determined as 109%.
With `CCCO[C@H]1CN(c2nc(-c3cnccn3)c(C(=O)O)s2)CC[C@H]1NC(=O)c1[nH]c(C)c(Cl)c1C#N` [Example 211, 2-[(3S,4R)-4-{[(4-chloro-3-cyano-5-methyl-1H-pyrrol-2-yl)carbonyl]amino}-3-propoxypiperidin-1-yl]-4-(pyrazin-2-yl)-1,3-thiazole-5-carboxylic acid], the inhibition at 1 µM at S. aureus GyrB ATPase came to 107%.
For the compound `CCCO[C@H]1CN(c2nc(-c3ncnn3C)c(C(=O)O)s2)CC[C@H]1NC(=O)c1[nH]c(C)c(Cl)c1Cl` [Example 215], the inhibition at 1 µM against S. aureus GyrB ATPase is 106%.
As to `CCCO[C@H]1CN(c2nc(-c3nccn3CCOC)c(C(=O)O)s2)CC[C@H]1NC(=O)c1[nH]c(C)c(Cl)c1Cl` [Example 216, 2-[(3S,4R)-4-{[(3,4-dichloro-5-methyl-1H-pyrrol-2-yl)carbonyl]amino}-3-propoxypiperidin-1-yl]-4-[1-(2-methoxyethyl)-1H-imidazol-2-yl]-1,3-thiazole-5-carboxylic acid], the inhibition at 1 µM against S. aureus GyrB ATPase is 109%.
With `CCCO[C@H]1CN(c2nc(-c3ncccc3F)c(C(=O)O)s2)CC[C@H]1NC(=O)c1[nH]c(C)c(Cl)c1Cl` [Example 217, 2-[(3S,4R)-4-{[(3,4-dichloro-5-methyl-1H-pyrrol-2-yl)carbonyl]amino}-3-propoxypiperidin-1-yl]-4-(3-fluoropyridin-2-yl)-1,3-thiazole-5-carboxylic acid], at S. aureus GyrB ATPase, the inhibition at 1 µM amounted to 113%.
